Reference: ChEMBL document CHEMBL1133413, “Selection of a potent inhibitor of trihydroxynaphthalene reductase by sorting disease control data” (Bioorg Med Chem Lett, 2000)

Target: T1, Scytalone dehydratase (Magnaporthe oryzae (strain 70-15 / FGSC 8958) (Rice blast fungus)(Pyricularia oryzae), UniProt P56221)
T1 sequence (P56221 whole entry): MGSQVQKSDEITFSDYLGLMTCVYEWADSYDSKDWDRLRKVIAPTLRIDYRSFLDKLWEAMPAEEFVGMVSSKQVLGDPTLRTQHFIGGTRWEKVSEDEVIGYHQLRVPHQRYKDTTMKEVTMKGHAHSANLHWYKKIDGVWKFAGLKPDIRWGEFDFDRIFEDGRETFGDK
Assay: Compound was evaluated for its inhibition constant against scytalone dehydratase (SD)
Design: species or system Pyricularia grisea

Structure (SMILES): O=C(/C=C/c1ccccc1)NC(=S)Nc1ccc(S(=O)(=O)Nc2cc(F)ccc2F)cc1
- Ki: 6.4 nM
